Drawing on patent US9073975B2, “Cyclic peptides, their preparation and their use as inhibitors of the platelet adhesion” (SANOFI, priority 2010, dated 2015), this text covers IC50 for ten compounds.

SMILES strings stand for the structures. Starred links: 1 amine or outer side, 2 acyl side, 3 side chain; linkers in the order of their positions; H or OH if unused. Positions of bridges follow the written chain, without caps; N, C: chain ends. Non-standard residues stand in square brackets, D forms with d. Residues, ends and D or L forms follow the SMILES beside them. ξ: configuration not given here. X1 = CSCC[C@H](NN[C@@H](CCCNC(=N)N)C(=O)C(=O)[C@H](CCC(=O)O)N[*:2])C(=O)[*:1]; Nle = CCCC[C@H](N)C(=O)O; Orn = NCCC[C@H](N)C(=O)O; Nva = CCC[C@H](N)C(=O)O; Abu = CC[C@H](N)C(=O)O; Ahp = NCCCCCCC(=O)O; Ava = NCCCCC(=O)O; ξA = CC(N)C(=O)O

For this experiment, the target named is T1, recombinant human vWF-A1 domain (Homo sapiens, UniProt P07359).
T1 construct: whole blood drawn from voluntary donors; made in house; host or cells: E. coli (vWF-A1); washed platelets from human donor blood (GPIb, endogenous)
T1 sequence (P07359 17-652): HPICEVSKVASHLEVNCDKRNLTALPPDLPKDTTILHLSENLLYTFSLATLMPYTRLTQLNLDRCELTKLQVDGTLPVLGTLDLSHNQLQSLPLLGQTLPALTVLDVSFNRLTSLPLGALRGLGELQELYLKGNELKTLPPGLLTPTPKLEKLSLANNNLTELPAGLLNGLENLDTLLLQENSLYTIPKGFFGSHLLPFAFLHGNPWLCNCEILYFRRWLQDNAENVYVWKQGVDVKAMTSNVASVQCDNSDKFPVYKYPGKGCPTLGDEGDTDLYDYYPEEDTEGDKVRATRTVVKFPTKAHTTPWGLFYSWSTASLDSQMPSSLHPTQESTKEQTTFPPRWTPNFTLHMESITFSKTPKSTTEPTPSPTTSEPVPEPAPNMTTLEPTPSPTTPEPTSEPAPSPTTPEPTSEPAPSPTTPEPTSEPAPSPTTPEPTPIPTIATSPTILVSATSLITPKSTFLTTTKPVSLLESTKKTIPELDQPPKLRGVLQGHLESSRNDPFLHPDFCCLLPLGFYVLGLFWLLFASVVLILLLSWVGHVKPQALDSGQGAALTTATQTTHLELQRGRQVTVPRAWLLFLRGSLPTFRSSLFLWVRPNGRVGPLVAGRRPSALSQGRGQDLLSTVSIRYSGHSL
T1 sequence (P13224 26-206 partner): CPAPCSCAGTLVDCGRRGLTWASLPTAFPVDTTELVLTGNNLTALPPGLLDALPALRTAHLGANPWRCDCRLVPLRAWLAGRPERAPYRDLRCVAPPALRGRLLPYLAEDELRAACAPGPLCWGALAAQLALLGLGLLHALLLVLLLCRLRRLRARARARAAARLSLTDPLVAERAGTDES
T1 sequence (P14770 17-177 partner): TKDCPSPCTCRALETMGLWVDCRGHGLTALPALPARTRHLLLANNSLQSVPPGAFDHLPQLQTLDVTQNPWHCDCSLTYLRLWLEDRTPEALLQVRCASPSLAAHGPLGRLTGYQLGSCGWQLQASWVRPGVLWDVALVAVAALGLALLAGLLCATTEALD
In words: Static human platelet adhesion to recombinant human vWF-A1 domain. Particulars: washed calcein AM labeled human platelets, static conditions, 1.5 h adhesion; read-out: Activity (IC50 for inhibition of the binding of platelets to vWF A1 domain). Type of experiment: cell-based. As for the experimental part: The activity of compounds of the formula I can be shown by procedures known in the art, for example by determining their inhibition of the binding of platelets to vWF A1 domain in an appropriate assay. To this end, assay plates can be coated with vWF-A1 domain. […] Then fluorescence-labeled thrombocytes are added and incubated for 90 minutes. In a complex washing procedure all non-bound thrombocytes are removed and the plates are measured, for example in a laser-based reader Acumen Explorer or a bulk reader like Spectramax. […] To assess the effect of compounds on the interaction of the GPIb complex on platelets with vWF, an assay system was used measuring binding of human platelets to recombinant human vWF-A1 domain under static conditions in the presence and absence of the compounds. […] Platelet rich plasma was carefully removed, transferred to a fresh container and spun down for 15 min at 120 g. Platelet rich plasma was carefully transferred again to fresh containers, PGE1 (0.5 μg/ml, Sigma) was added and the suspension was allowed to rest for 5 min. This was followed by another centrifugation step for 15 min at 360 g. The supernatant was discarded and the cell pellets were carefully resuspended in tyrode buffer (NaCl, 137 mM (Sigma S-3014); KCl, 2.7 mM (Sigma P-9541); NaHCO3,12 mM ([…] 31437); NaH2PO4×2H2O, 0.36 mM (Merck 6345); […] After 5 min of resting the suspension was spun down for 15 min at 300 g. The supernatant was discarded and the pellets were carefully resuspended in TBS buffer (Tris-HCl, 50 mM (Fluka 93371); NaCl, 120 mM (Sigma S-3014); KCl, 2.7 mM (Sigma P-9541); CaCl2, 0.05 mM (Sigma C-3306); MgCl2×6 H2O, 2 mM (Sigma M-2670); […] The platelet count was adjusted to 2×10^5 cells/μl, and the suspensions from individual donors were pooled at this stage. The platelets were allowed to rest for 30 min at room temperature before calcein AM (2.5 μM per 2×10^5 cells/μl (Molecular Probes C-3099)) was added. This was followed by 15 min incubation in the dark. Cells were diluted to 5×10^4 cells/μl and ReoPro (3 μg/ml (Centocor B. V., Leiden, N L)) was added, followed by a 10 min incubation period in the dark before adding the platelets to the assay plates. 96 well plates (Greiner hb, black, clear bottom, F, 655097) were coated with human recombinant vWF-A1 domain (1.5 μg/well, AA 475-706, expressed in E. coli) in Tris buffer (pH 7.4; Tris-HCl, 25 mM; NaCl, 150 mM) and incubated for 1 h at room temperature. After washing the wells 3× with TBS, blocking buffer (TBS with 5% BSA) was added followed by an incubation for 1 h. The wells were washed again 3× with TBS before 200 μl TBS were added to each well, preventing them from drying out. TBS was flicked out and serial dilutions of the test compound were added. The washed and calcein AM labeled thrombocytes were added to the wells (2.5×10^6 cells/well). Following an adhesion period of 1.5 h in the dark the wells were washed 3× with TBS. Measurement of fluorescence per well was performed in a SpectraMax M5 reader (Molecular Devices). From the raw data % inhibition and IC50 values were calculated.
`CCCC[C@@H]1NC(=O)[C@H](CCCNC(=N)N)NC(=O)[C@H](CCC(=O)O)NC(=O)[C@H]([C@@H](C)O)NC(=O)CCCCCCNC(=O)[C@H](CC(C)C)NC(=O)[C@H](CC(N)=O)NC(=O)[C@H](Cc2c[nH]cn2)NC(=O)[C@H](CC(C)C)NC(=O)[C@H](C)NC1=O` [Example 43, Cyclo[Leu-His-Asn-Leu-NH—(CH2)6—CO-Thr-Glu-Arg-Nle-Ala]] (cyclo(ALHNL[Ahp]TER[Nle])): the IC50 (usually the concentration that gives 50% inhibition) is below 1000 nM. Regarding `CC[C@@H]1NC(=O)[C@H](CCCNC(=N)N)NC(=O)[C@H](CCC(=O)O)NC(=O)[C@H]([C@@H](C)O)NC(=O)CCCCCCNC(=O)[C@H](CC(C)C)NC(=O)[C@H](CC(N)=O)NC(=O)[C@H](Cc2c[nH]cn2)NC(=O)[C@H](CC(C)C)NC(=O)[C@H](C)NC1=O` [Example 42, Cyclo[Leu-His-Asn-Leu-NH—(CH2)6—CO-Thr-Glu-Arg-Abu-Ala]] (cyclo(ALHNL[Ahp]TER[Abu])), the IC50 is below 1000 nM.

As to `CCCC[C@@H]1NC(=O)[C@H](C)NC(=O)[C@H](CCSC)NC(=O)[C@H](CCCNC(=N)N)NC(=O)[C@H](CCC(=O)O)NC(=O)[C@H]([C@@H](C)O)NC(=O)CCCCCCNC(=O)[C@H](CC(C)C)NC(=O)[C@H](CC(N)=O)NC(=O)[C@H](Cc2c[nH]cn2)NC1=O` [Example 13, Cyclo[Nle-His-Asn-Leu-NH—(CH2)6—CO-Thr-Glu-Arg-Met-Ala]] (cyclo(A[Nle]HNL[Ahp]TERM)), the IC50 is 1000 to 10000 nM.

On to `CSCC[C@@H]1NC(=O)[C@H](CCCNC(=N)N)NC(=O)[C@H](CCC(=O)O)NC(=O)[C@H]([C@@H](C)O)NC(=O)CCCCCCNC(=O)[C@H](CC(C)C)NC(=O)[C@H](CC(N)=O)NC(=O)[C@H](Cc2c[nH]cn2)NC(=O)[C@H](CC(C)C)NC(=O)[C@H](CCC(N)=O)NC1=O` [Example 55, Cyclo[Leu-His-Asn-Leu-NH—(CH2)6—CO-Thr-Glu-Arg-Met-Gln]] (cyclo([Ahp]TERMQLHNL)), for which the concentration for half-maximal inhibition (IC50) is 1000 to 10000 nM.

For `CSCC[C@@H]1NC(=O)[C@H](CCCNC(=N)N)NC(=O)[C@H](CCC(=O)O)NC(=O)[C@H]([C@@H](C)O)NC(=O)CCCCNC(=O)CNC(=O)[C@H](CC(C)C)NC(=O)[C@H](CC(N)=O)NC(=O)[C@H](Cc2c[nH]cn2)NC(=O)[C@H](CC(C)C)NC(=O)[C@H](C)NC1=O` [Example 46, Cyclo[Leu-His-Asn-Leu-Gly-NH—(CH2)4—CO-Thr-Glu-Arg-Met-Ala]] (cyclo(ALHNLG[Ava]TERM)), the IC50 is 1000 to 10000 nM.

Turning to `CCC[C@@H]1NC(=O)[C@H](C)NC(=O)[C@H](CCSC)NC(=O)[C@H](CCCNC(=N)N)NC(=O)[C@H](CCC(=O)O)NC(=O)[C@H]([C@@H](C)O)NC(=O)CCCCCCNC(=O)[C@H](CC(C)C)NC(=O)[C@H](CC(N)=O)NC(=O)[C@H](Cc2c[nH]cn2)NC1=O` [Example 19, Cyclo[Nva-His-Asn-Leu-NH—(CH2)6—CO-Thr-Glu-Arg-Met-Ala]] (cyclo(A[Nva]HNL[Ahp]TERM)), the IC50 is below 1000 nM. For the compound `CSCC[C@@H]1NN[C@@H](CCCNC(=N)N)C(=O)C(=O)[C@H](CCC(=O)O)NC(=O)[C@H]([C@@H](C)O)NC(=O)CCCCCCNC(=O)[C@H](CC(C)C)NC(=O)[C@H](CC(N)=O)NC(=O)[C@H](Cc2cnc[nH]2)NC(=O)[C@H](CC(C)C)NC(=O)C(C)NC1=O` (stereo partly drawn) [Example 1, Cyclo[Leu-His-Asn-Leu-NH—(CH2)6—CO-Thr-Glu-Arg-Met-Ala]] ([ξA]LHNL[Ahp]T; linker N-C via X1), the half-maximal inhibitory concentration (IC50) is below 1000 nM. On to `CSCC[C@@H]1NC(=O)[C@H](CCCN)NC(=O)[C@H](CCC(=O)O)NC(=O)[C@H]([C@@H](C)O)NC(=O)CCCCCCNC(=O)[C@H](CC(C)C)NC(=O)[C@H](CC(N)=O)NC(=O)[C@H](Cc2c[nH]cn2)NC(=O)[C@H](CC(C)C)NC(=O)[C@H](C)NC1=O` [Example 28, Cyclo[Leu-His-Asn-Leu-NH—(CH2)6—CO-Thr-Glu-Orn-Met-Ala]] (cyclo(ALHNL[Ahp]TE[Orn]M)), for which the 50% inhibitory concentration (IC50) was below 1000 nM. For the compound `CC(C)C[C@@H]1NC(=O)[C@H](C)NC(=O)[C@H](CCC(N)=O)NC(=O)[C@H](CCCNC(=N)N)NC(=O)[C@H](CCC(=O)O)NC(=O)[C@H]([C@@H](C)O)NC(=O)CCCCCCNC(=O)[C@H](CC(C)C)NC(=O)[C@H](CC(N)=O)NC(=O)[C@H](Cc2c[nH]cn2)NC1=O` [Example 41, Cyclo[Leu-His-Asn-Leu-NH—(CH2)6—CO-Thr-Glu-Arg-Gln-Ala]] (cyclo(ALHNL[Ahp]TERQ)), the half-inhibitory concentration (IC50) was below 1000 nM. For the compound `CSCC[C@@H]1NC(=O)[C@H](CCCNC(=N)N)NC(=O)[C@H](CCC(=O)O)NC(=O)[C@H](CC(N)=O)NC(=O)CCCCCCNC(=O)[C@H](CC(C)C)NC(=O)[C@H](CC(N)=O)NC(=O)[C@H](Cc2c[nH]cn2)NC(=O)[C@H](CC(C)C)NC(=O)[C@H](C)NC1=O` [Example 22, Cyclo[Leu-His-Asn-Leu-NH—(CH2)6—CO-Asn-Glu-Arg-Met-Ala]] (cyclo(ALHNL[Ahp]NERM)), the half-inhibitory concentration (IC50) was below 1000 nM.
